Molecules are shown by their SMILES. A value given as a limit tells only on which side of the number the result lay.

MetAP-2, sequence (P50579 whole entry, species assumed): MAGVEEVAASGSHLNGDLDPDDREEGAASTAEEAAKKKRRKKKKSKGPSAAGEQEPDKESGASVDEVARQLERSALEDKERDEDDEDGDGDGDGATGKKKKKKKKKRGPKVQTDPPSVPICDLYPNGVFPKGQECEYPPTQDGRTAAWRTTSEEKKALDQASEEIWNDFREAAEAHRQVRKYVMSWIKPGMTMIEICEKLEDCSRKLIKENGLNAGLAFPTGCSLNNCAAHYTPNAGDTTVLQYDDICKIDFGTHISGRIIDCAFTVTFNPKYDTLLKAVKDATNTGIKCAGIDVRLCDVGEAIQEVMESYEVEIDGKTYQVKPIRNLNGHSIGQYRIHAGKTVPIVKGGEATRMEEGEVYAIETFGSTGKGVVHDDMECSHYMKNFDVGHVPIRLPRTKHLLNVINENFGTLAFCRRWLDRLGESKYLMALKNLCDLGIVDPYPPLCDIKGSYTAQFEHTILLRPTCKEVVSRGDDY

The target in this assay is MetAP-2 (Homo sapiens, UniProt P50579). Put plainly: MetAP-2 activity measurement (coupled enzymatic reactions, substrate Met-Arg-Ser, photometric at 450 nm). The assay is classed as biochemical. Conditions: Inhibition of MetAP-2; read-out: IC50 enzyme. Here is the method:
The MetAP-2 activity is determined by coupling enzymatic reactions. The tripeptide Met-Arg-Ser (MAS) is employed as substrate. The methionine liberated is firstly converted into Metox and H2O2 by L-aminooxidase (AAO). In the second step, the peroxidase (POD) with the aid of the H2O2 catalyses the oxidation of the leukodye dianisidine to dianisidineox, the increase of which is detected photometrically at 450 nm.
MetAP-2 activity can be recorded continuously as kinetics. The reaction scheme illustrates that one mol of dianisidineox is formed per mol of methionene. The MetAP-2 enzyme activity can therefore be calculated directly as Δ absorption per time unit. Qualification of the MetAP-2 activity (mol of Met/time unit) is possible with the aid of the dianisidineox extinction coefficient. The change in extinction per time unit is depicted graphically and a slope calculation is carried out in the visually linear region of the reaction.
The term IC50 denotes the concentration that gives 50% inhibition. Take `c1ccc2c(OC[C@H]3CCCN3c3ccnc4nncn34)cccc2c1` [Compound A4, 5-[(R)-2-(naphthalen-1-yloxymethyl)pyrrolidin-1-yl]-[1,2,4]-triazolo[4,3-a]pyrimidine]: the IC50 was more than 10000 nM. As for `c1ccc2c(OC[C@H]3CCCN3c3ccnc4ncnn34)ccnc2c1` [Compound A8], the IC50 was 10 to 1000 nM. As for `FC(F)(F)Oc1ccc2nccc(OC[C@H]3CCCN3c3ccnc4ncnn34)c2c1` [Compound A9], the IC50 was in the range of 10 to 1000 nM. Next, `FC(F)(F)c1ccc2nccc(OC[C@H]3CCCN3c3ccnc4ncnn34)c2c1` [Compound A10]: 10 to 1000 nM; `O=C(NCc1ccc(F)cc1)c1cc(OC[C@H]2CCCN2c2ccnc3ncnn23)c2ccccc2n1` [Compound A11]: 10 to 1000 nM. The result for `O=C(NCCc1ccc(F)cc1)c1cc(OC[C@H]2CCCN2c2ccnc3ncnn23)c2ccccc2n1` [Compound A12] reads 10 to 1000 nM.

In the case of `CCNC(=O)c1cc(OC[C@H]2CCCN2c2ccnc3ncnn23)c2ccccc2n1` [Compound A13], the IC50 lay within 10 to 1000 nM. As to `c1ccc2c(OC[C@H]3CCCN3c3ccnc4ncnn34)nccc2c1` [Compound A16], the IC50 lay in the range of 10 to 1000 nM. Next, `c1cc(OC[C@H]2CCCN2c2ccnc3ncnn23)c2ccncc2c1` [Compound A17]: 10 to 1000 nM; `O=C(NCCCN1CCCC1=O)c1cc(OC[C@H]2CCCN2c2ccnc3ncnn23)c2ccccc2n1` [Compound A18]: 10 to 1000 nM.

As for `CCOC(=O)c1n[nH]c(C)c1OC[C@H]1CCCN1c1ccnc2ncnn12` [Compound A19], the IC50 fell in the range of 10 to 1000 nM.

Consider `c1ccc2c(OC[C@H]3CCCN3c3ccnc4ncnn34)ccc(CNCCN3CCOCC3)c2c1` [Compound A20], for which the IC50 lay within 10 to 1000 nM. On to `c1ccc2c(OC[C@H]3CCCN3c3ccnc4ncnn34)ccc(CNCCCN3CCOCC3)c2c1` [Compound A21], for which the IC50 fell in the range of 10 to 1000 nM. Next, `O=C(NCc1ccccc1)c1cc(OC[C@H]2CCCN2c2ccnc3ncnn23)c2ccccc2n1` [Compound A22]: 10 to 1000 nM; `O=C(NCCc1c[nH]c2ccccc12)c1cc(OC[C@H]2CCCN2c2ccnc3ncnn23)c2ccccc2n1` [Compound A23]: 10 to 1000 nM; `NS(=O)(=O)c1ccc(CCNC(=O)c2cc(OC[C@H]3CCCN3c3ccnc4ncnn34)c3ccccc3n2)cc1` [Compound A24]: 10 to 1000 nM. As for `CC(C)(C)OC(=O)N1CCc2cccc(OC[C@H]3CCCN3c3ccnc4ncnn34)c2C1` [Compound A25], the IC50 lay in the range of 1000 to 10000 nM. Next, `O=C(OC[C@H]1CCCN1c1ccnc2ncnn12)c1ccc(F)cc1` [Compound A26]: 10 to 1000 nM. As for `c1cc2c(c(OC[C@H]3CCCN3c3ccnc4ncnn34)c1)CNCC2` [Compound A27], the IC50 lay in the range of 10 to 1000 nM. Regarding `O=C(NCCc1ccc(Cl)cc1)c1cc(OC[C@H]2CCCN2c2ccnc3ncnn23)c2ccccc2n1` [Compound A28], the 50% inhibitory concentration (IC50) fell in the range of 1000 to 10000 nM.

On to `CC(C)(C)OC(=O)N[C@H](CC(N)=O)C(=O)N1CCc2cccc(OC[C@H]3CCCN3c3ccnc4ncnn34)c2C1` [Compound A29], for which the IC50 fell in the range of 10 to 1000 nM. The result for `CC(C)(C)OC(=O)NCC(=O)N1CCc2cccc(OC[C@H]3CCCN3c3ccnc4ncnn34)c2C1` [Compound A31] reads 10 to 1000 nM; that for `CC(=O)N[C@@H](CC(N)=O)C(=O)N1CCc2cccc(OC[C@H]3CCCN3c3ccnc4ncnn34)c2C1` [Compound A32], 10 to 1000 nM. As for `CC(=O)N1CCc2cccc(OC[C@H]3CCCN3c3ccnc4ncnn34)c2C1` [Compound A33], the IC50 lay within 10 to 1000 nM. Next, `O=C(c1ccno1)N1CCc2cccc(OC[C@H]3CCCN3c3ccnc4ncnn34)c2C1` [Compound A34]: 10 to 1000 nM; `CC(C)(C)OC(=O)NCCCCN1CCc2cccc(OC[C@H]3CCCN3c3ccnc4ncnn34)c2C1` [Compound A35]: 10 to 1000 nM. As to `NC(=O)C[C@@H](N)C(=O)N1CCc2cccc(OC[C@H]3CCCN3c3ccnc4ncnn34)c2C1` [Compound A36], the IC50 was 10 to 1000 nM. For the compound `NCC(=O)N1CCc2cccc(OC[C@H]3CCCN3c3ccnc4ncnn34)c2C1` [Compound A37], the IC50 lay within 10 to 1000 nM.

In the case of `N#CCCCCN1CCc2cccc(OC[C@H]3CCCN3c3ccnc4ncnn34)c2C1` [Compound A38], the IC50 is 10 to 1000 nM. Next, `CC(C)(C)OC(=O)N[C@H](CC#N)C(=O)N1CCc2cccc(OC[C@H]3CCCN3c3ccnc4ncnn34)c2C1` [Compound A39]: 10 to 1000 nM. Next, `N#CCCCCOC(=O)N1CCc2cccc(OC[C@H]3CCCN3c3ccnc4ncnn34)c2C1` [Compound A40]: 10 to 1000 nM; `NCCCCN1CCc2cccc(OC[C@H]3CCCN3c3ccnc4ncnn34)c2C1` [Compound A41]: 10 to 1000 nM; `NCCCCOC(=O)N1CCc2cccc(OC[C@H]3CCCN3c3ccnc4ncnn34)c2C1` [Compound A42]: 10 to 1000 nM. The result for `COc1cccc(C(=O)OC[C@H]2CCCN2c2ccnc3ncnn23)c1` [Compound A43] reads 10 to 1000 nM; that for `O=C(OC[C@H]1CCCN1c1ccnc2ncnn12)c1cccc(Br)c1` [Compound A44], 10 to 1000 nM; that for `O=C(OC[C@H]1CCCN1c1ccnc2ncnn12)c1cccc(I)c1` [Compound A45], 10 to 1000 nM. As to `O=C(OC[C@H]1CCCN1c1ccnc2ncnn12)c1cc(Cl)nc2ccccc12` [Compound A46], the IC50 lay in the range of 10 to 1000 nM. As to `c1ccc2c(OC[C@H]3CCCN3c3ccnc4nsnc34)cccc2c1` [Compound A47], the IC50 is more than 10000 nM. Take `FC(F)(F)c1cccc(COC[C@H]2CCCN2c2ccnc3ncnn23)c1` [Compound A48]: the IC50 was 1000 to 10000 nM. Next, `Ic1cccc(COC[C@H]2CCCN2c2ccnc3ncnn23)c1` [Compound A49]: 1000 to 10000 nM. The result for `CN(C)c1cccc(C(=O)OC[C@H]2CCCN2c2ccnc3ncnn23)c1` [Compound A50] reads 10 to 1000 nM; that for `COc1cccc(COC[C@H]2CCCN2c2ccnc3ncnn23)c1` [Compound A51], 10 to 1000 nM. Next, `O=C(OC[C@H]1CCCN1c1ccnc2ncnn12)c1cccc(F)c1` [Compound A52]: 10 to 1000 nM; `NC(=O)CCCC(=O)N1CCc2cccc(OC[C@H]3CCCN3c3ccnc4ncnn34)c2C1` [Compound A53]: 10 to 1000 nM. For `Fc1cccc(COC[C@H]2CCCN2c2ccnc3ncnn23)c1` [Compound A55], the IC50 was in the range of 10 to 1000 nM. Next, `c1cncc(COC[C@H]2CCCN2c2ccnc3ncnn23)c1` [Compound A56]: 1000 to 10000 nM; `O=C(O)Cc1ccccc1OC[C@H]1CCCN1c1ccnc2ncnn12` [Compound A57]: more than 10000 nM. For `c1cc(COC[C@H]2CCCN2c2ccnc3ncnn23)ccn1` [Compound A58], the IC50 is more than 10000 nM. The result for `COC(=O)c1ccc2[nH]c(COC[C@H]3CCCN3c3ccnc4ncnn34)cc2c1` [Compound A59] reads 10 to 1000 nM. Regarding `O=C(OC[C@H]1CCCN1c1ccnc2ncnn12)c1cccc(C(F)(F)F)c1` [Compound A60], the IC50 was more than 10000 nM.

Turning to `O=C(OC[C@H]1CCCN1c1ccnc2ncnn12)c1ccc(Cl)nc1` [Compound A61], the IC50 lay in the range of 10 to 1000 nM.

Turning to `O=C(OC[C@H]1CCCN1c1ccnc2ncnn12)c1cccnc1Oc1ccccc1` [Compound A62], the IC50 was 10 to 1000 nM. As for `O=C(OC[C@H]1CCCN1c1ccnc2ncnn12)c1ccc(Oc2ccccc2)nc1` [Compound A64], the IC50 is 10 to 1000 nM. The result for `Clc1cc(COC[C@H]2CCCN2c2ccnc3ncnn23)cc(Cl)n1` [Compound A65] reads more than 10000 nM. Next, `Brc1cccc(COC[C@H]2CCCN2c2ccnc3ncnn23)c1` [Compound A66, 7-[(R)-2-(3-Bromobenzyloxymethyl)pyrrolidin-1-yl]-[1,2,4]triazolo[1,5-a]pyrimidine]: 10 to 1000 nM; `FC(F)(F)Oc1cccc(COC[C@H]2CCCN2c2ccnc3ncnn23)c1` [Compound A67, 7-[(R)-2-(3-Trifluoromethoxybenzyloxymethyl)-pyrrolidin-1-yl]-[1,2,4]triazolo[1,5-a]pyrimidine]: 10 to 1000 nM. Take `O=C(OC[C@H]1CCCN1c1ccnc2ncnn12)c1ccccc1I` [Compound A68, (R)-1-[1,2,4]Triazolo[1,5-a]pyrimidin-7-yl-pyrrolidin-2-ylmethyl 2-iodobenzoate]: the 50% inhibitory concentration (IC50) lay in the range of 10 to 1000 nM.

For `O=C(OC[C@H]1CCCN1c1ccnc2ncnn12)c1ccccn1` [Compound A69, (R)-1-[1,2,4]Triazolo[1,5-a]pyrimidin-7-yl-pyrrolidin-2-ylmethyl pyridine-2-carboxylate], the IC50 fell in the range of 10 to 1000 nM. The result for `O=C(OC[C@H]1CCCN1c1ccnc2ncnn12)c1cccnc1` [Compound A70] reads 10 to 1000 nM. Regarding `O=C(OC[C@H]1CCCN1c1ccnc2ncnn12)c1ccccc1` [Compound A71, (R)-1-[1,2,4]Triazolo[1,5-a]pyrimidin-7-yl-pyrrolidin-2-ylmethyl benzoate], the IC50 is 10 to 1000 nM. `CCOc1cccc(C(=O)OC[C@H]2CCCN2c2ccnc3ncnn23)c1` [Compound A72, (R)-1-[1,2,4]Triazolo[1,5-a]pyrimidin-7-yl-pyrrolidin-2-ylmethyl 3-ethoxybenzoate]: the IC50 lay in the range of 10 to 1000 nM. As for `O=C(OC[C@H]1CCCN1c1ccnc2ncnn12)c1cc(Cl)ccc1F` [Compound A73, (R)-1-[1,2,4]Triazolo[1,5-a]pyrimidin-7-yl-pyrrolidin-2-ylmethyl 5-chloro-2-fluorobenzoate], the IC50 lay within 10 to 1000 nM.

With `O=C(OC[C@H]1CCCN1c1ccnc2ncnn12)c1cccc(CCl)c1` [Compound A74, (R)-1-[1,2,4]Triazolo[1,5-a]pyrimidin-7-yl-pyrrolidin-2-ylmethyl 3-chloromethylbenzoate], the IC50 was in the range of 10 to 1000 nM.

Values taken from patent US8546406B2, “Heterocyclic compounds as metap-2 inhibitors” (Merck Patent GmbH, priority 2009, dated 2013).
